The results in this text go back to patent US20050014765A1, “Aryl-heteroaromatic products, compositions comprising them and use” (Aventis Pharma S.A., priority 2003, published 2005).

Where a name gives a salt, the structure may show the parent alone.

Test [1] concerns the target T1, Tubulin purified from pig brains (Sus scrofa, UniProt P02550+P02554).
T1 construct: Tubulin is purified from pig brains according to published methods; from tissue; host or cells: pig brain
Briefly: Assessment of the inhibition of tubulin polymerization (turbidimetry at 350 nm). It is filed as biochemical. The following applies: concentration which inhibits the rate of polymerization by 50%; tubulin 1 mg/ml, 37° C.; read-out: Inhibition of tubulin polymerization IC 50. As for the experimental part: Assessment of the Inhibition of Tubulin Polymerization
Tubulin is purified from pig brains according to published methods (Shelanski et al., 1973, Proc. Natl. Acad. Sci. USA, 70, 765-768. Weingarten et al., 1975, Proc. Natl. Acad. Sci. USA, 72, 1858-1862). Briefly, the brains are ground and centrifuged in an extraction buffer. The tubulin, present in the extract supernatant is subjected to two successive cycles of polymerization at 37° C. and depolymerization at 4° C., before being separated from the MAPs (Microtubule Associated Proteins) by chromatography on a phosphocellulose P11 column (Whatman). The tubulin thus isolated is more than 95% pure. It is stored in a buffer known as RB/2 30% glycerol, the composition of which is 50 mM MES-NaOH [2-(N-morpholino)ethanesulfonic acid], pH 6.8; 0.25 mM MgCl2; 0.5 mM EGTA; 30% (v/v) glycerol, 0.2 mM GTP (guanosine 5′-triphosphate).
The polymerization of the tubulin into microtubules is monitored by turbidimetry as follows: the tubulin is adjusted to a concentration of 10 μm (1 mg/ml) in the RB/2 30% glycerol buffer, to which are added 1 mM GTP and 6 mM MgCl2. The polymerization is initiated by increasing the temperature from 6° C. to 37° C. in a cuvette with a 1 cm optical pathlength, placed in a UVIKON 931 spectrophotometer (Kontron) equipped with a thermostatically-regulated cuvette holder. The increase in turbidity of the solution is monitored at 350 nm.
The products are dissolved at 10 mM in DMSO and added at variable concentrations (0.5 to 10 μm) to the tubulin solution before polymerization. The IC50 is defined as the concentration of the product which inhibits the rate of polymerization by 50%.

The next test concerns HCT116 cells. The test is described as follows: Inhibition of proliferation of the HCT116 human colon tumor line ([14C]-thymidine incorporation). It is filed as cell-based. The following applies: HCT-116, 48 hours incubation at 37° C., read-out: Inhibition of HCT116 proliferation IC 50. Here is the method: Test for Determining the Inhibition of Proliferation of the HCT116 Human Colon Tumor Line
The proliferation of HCT116 cells is evaluated by mesuring the incorporation of [^14C]-thymidine in the following way. The HCT166 cells (from the ATCC) are cultured in a DMEM medium (Gibco) which contains 10% of fetal calf serum and antibiotics (1% penicillin, 1% streptomycin). To perform the proliferation test, the cells are seeded into 96-well cytostar microplates (Amersham) at the rate of 5000 cells per well. The [^14C]-thymidine (0.1 μCi/well) and the products to be evaluated are subsequently added. Variable concentrations of products up to 10 μM are used; the DMSO (solvent used to dissolve the products) should not exceed 0.5% in the medium. 48 hours after incubation at 37° C., the radioactivity incorporated into the cells is measured by counting the plate in a Tri-Lux counter (Wallac). The IC50 is defined as the concentration of product which reduces the radioactivity by 50% compared with an untreated control. A product with an IC50 of less than 10 μm is regarded as cytotoxic.
(Uptake of a labelled nucleoside into DNA is a usual measure of proliferation.)

T1 sequence (P02550 whole entry): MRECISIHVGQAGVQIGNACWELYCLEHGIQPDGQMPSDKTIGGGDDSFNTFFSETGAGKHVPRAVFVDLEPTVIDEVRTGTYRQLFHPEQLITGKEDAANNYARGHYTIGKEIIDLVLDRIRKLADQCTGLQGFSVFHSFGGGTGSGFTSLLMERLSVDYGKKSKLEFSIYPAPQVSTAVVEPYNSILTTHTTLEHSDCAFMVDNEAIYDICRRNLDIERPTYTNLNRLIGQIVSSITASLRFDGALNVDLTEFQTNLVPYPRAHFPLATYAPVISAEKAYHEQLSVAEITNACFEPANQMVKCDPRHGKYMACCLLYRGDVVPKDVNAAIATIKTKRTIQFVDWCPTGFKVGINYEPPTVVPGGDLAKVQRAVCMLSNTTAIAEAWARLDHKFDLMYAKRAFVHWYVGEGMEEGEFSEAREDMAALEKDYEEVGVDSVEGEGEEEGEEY
T1 sequence (P02554 whole entry): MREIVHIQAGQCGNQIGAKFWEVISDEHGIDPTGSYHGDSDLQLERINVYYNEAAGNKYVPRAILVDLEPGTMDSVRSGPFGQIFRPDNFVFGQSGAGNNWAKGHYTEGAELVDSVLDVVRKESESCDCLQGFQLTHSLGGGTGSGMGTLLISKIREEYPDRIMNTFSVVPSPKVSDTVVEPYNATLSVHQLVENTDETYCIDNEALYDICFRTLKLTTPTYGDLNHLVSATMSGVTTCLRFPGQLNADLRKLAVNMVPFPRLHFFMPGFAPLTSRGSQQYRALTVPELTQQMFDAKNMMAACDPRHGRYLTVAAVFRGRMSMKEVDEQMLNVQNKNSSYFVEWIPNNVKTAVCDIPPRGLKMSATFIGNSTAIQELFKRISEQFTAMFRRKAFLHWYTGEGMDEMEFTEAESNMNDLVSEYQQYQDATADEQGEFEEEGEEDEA

Turning to `COc1cc(OC)cc(N2CCN(C(=O)c3[nH]c([S+](C)[O-])nc3-c3ccccc3)CC2)c1` (stereo not shown) [Example 33, [4-(3,5-Dimethoxyphenyl)piperazin-1-yl](2-methanesulfinyl-5-phenyl-1H-imidazol-4-yl)methanone], the IC50 in test [1] was 1950 nM; in the test on HCT116 cells it was 180 nM.

Regarding `COC(=O)CCn1cc(C(=O)N2CCN(c3cccc(Cl)c3)CC2)c(-c2ccccc2)c1` [Example 34, Methyl 3-{3-[4-(3-chlorophenyl)piperazin-1-ylcarbonyl]-4-phenylpyrrol-1-yl}-propionate], the figures for the IC50 (in test [1]; with HCT116 cells) were 2160 nM and 749 nM, respectively.

On to `Cn1cc(C(=O)N2CCN(c3cccc(C(N)=O)c3)CC2)c(-c2ccccc2)c1` [Example 37, 3-[4-(1-Methyl-4-phenyl-1H-pyrrol-3-yl-carbonyl)piperazin-1-yl]benzamide], for which the values for the IC50 (in test [1]; in the test with HCT116 cells) were 720 nM and 14.9 nM, respectively.

`COc1cc(OC)c(O)c(N2CCN(C(=O)c3[nH]c([S+](C)[O-])nc3-c3ccccc3)CC2)c1` (stereo not shown) [Example 38, [4-(2-Hydroxy-3,5-dimethoxyphenyl)piperazin-1-yl](2-methanesulfinyl-5-phenyl-1H-imidazol-4-yl)methanone]: the IC50 in test [1] was 19900 nM; in the test with HCT116 cells, 2310 nM.

As to `NC(=O)c1cccc(N2CCN(C(=O)c3[nH]ccc3-c3ccccc3)CC2)c1` [Example 39, 3-[4-(3-Phenyl-1H-pyrrol-2-ylcarbonyl)piperazin-1-yl]benzamide], the figures for the IC50 (in test [1]; in the test with HCT116 cells) were 12400 nM and 200 nM, respectively.

With `COc1cc(OC)cc(N2CCN(C(=O)c3c(-c4ccccc4)ccn3C)CC2)c1` [Example 40, [4-(3,5-Dimethoxyphenyl)piperazin-1-yl](1-methyl-3-phenyl-1H-pyrrol-2-yl)-methanone hydrochloride], the figures for the IC50 (in test [1]; in the test on HCT116 cells) were 11200 nM and 275 nM, respectively.

Regarding `COc1cc(OC)cc(N2CCN(C(=O)c3cn(C(C)=O)cc3-c3ccccc3)CC2)c1` [Example 41, 1-{3-[4-(3,5-Dimethoxyphenyl)piperazin-1-yl-carbonyl]-4-phenylpyrrol-1-yl}-ethanone], the values for the IC50 (in test [1]; in the test on HCT116 cells) were 1330 nM and 123 nM, respectively.

Regarding `COc1cc(OC)cc(N2CCN(C(=O)c3sc(N)nc3-c3ccccc3)CC2)c1` [Example 42, (2-Amino-4-phenylthiazol-5-yl)[4-(3,5-dimethoxyphenyl)piperazin-1-yl]-methanone], the values for the IC50 (in test [1]; in the test on HCT116 cells) were 1290 nM and 1.6 nM, respectively.

In the case of `COc1cc(OC)cc(N2CCN(C(=O)c3[nH]c(C)nc3-c3ccccc3)CC2)c1` [Example 43, [4-(3,5-Dimethoxyphenyl)piperazin-1-yl](2-methyl-5-phenyl-3H-imidazol-4-yl)methanone], the IC50 was 600 nM in test [1] and 7.1 nM in the test on HCT116 cells.

For the compound `COc1cc(OC)cc(N2CCN(C(=O)c3cn(CCCC(=O)O)cc3-c3ccccc3)CC2)c1` [Example 46, 4-{3-[4-(3,5-Dimethoxyphenyl)piperazin-1-yl]carbonyl-4-phenyl-1H-pyrrol-1-yl}-butanoic acid], the values for the IC50 (in test [1]; in the test with HCT116 cells) were 4350 nM and 6380 nM, respectively.

As to `COc1cc(OC)cc(N2CCN(C(=O)c3cn(Cc4cccnc4)cc3-c3ccccc3)CC2)c1` [Example 48, [4-(3,5-Dimethoxyphenyl)piperazin-1-yl][1-(pyridin-3-yl)methyl-4-phenyl-1H-pyrrol-3-yl]methanone], the IC50 in test [1] came out at 750 nM; in the test with HCT116 cells, 51.1 nM.

`Cn1ccc(C(=O)N2CCN(c3cccc(C(N)=O)c3)CC2)c1-c1ccccc1` [Example 50, 3-[4-(1-Methyl-2-phenyl-1H-pyrrol-3-ylcarbonyl)piperazin-1-yl]benzamide]: the IC50 in test [1] turned out to be 3410 nM; with HCT116 cells, 536 nM.

As to `NC(=O)c1cccc(N2CCN(C(=O)c3[nH]c(C(F)(F)F)nc3-c3ccccc3)CC2)c1` [Example 54, 3-[4-(2-Trifluoromethyl-4-phenyl-1H-imidazol-5-ylcarbonyl)piperazin-1-yl]-benzamide], the results for the IC50 (in test [1]; with HCT116 cells) were 1080 nM and 1890 nM, respectively.

Turning to `CSc1nc(-c2ccccc2)c(C(=O)N2CCN(c3cccc(C(N)=O)c3)CC2)[nH]1` [Example 55, 3-[4-(2-Methylsulfanyl-4-phenyl-1H-imidazol-5-ylcarbonyl)piperazin-1-yl]-benzamide], the IC50 in test [1] was determined as 1380 nM; in the test on HCT116 cells, 64 nM.

For the compound `CSc1nc(-c2ccccc2)c(C(=O)N2CCN(c3cccc(C#N)c3)CC2)[nH]1` [Example 56, 3-[4-(2-Methylsulfanyl-4-phenyl-1H-imidazol-5-ylcarbonyl)piperazin-1-yl]-benzonitrile], the IC50 in test [1] was found to be 415 nM; in the test with HCT116 cells, 1.7 nM.

Consider `NC(=O)c1cccc(N2CCN(C(=O)c3c[nH]cc3-c3ccccc3)CC2)c1` [Example 58, 3-[4-(4-Phenyl-1H-pyrrol-3-ylcarbonyl)piperazin-1-yl]benzamide], for which the IC50 is 4450 nM in test [1] and 334 nM in the test on HCT116 cells.

`Cc1nc(-c2ccccc2)c(C(=O)N2CCN(c3cccc(C(N)=O)c3)CC2)[nH]1` [Example 59, 3-[4-(2-Methyl-5-phenyl-1H-imidazol-4-ylcarbonyl)piperazin-1-yl]benzamide]: the IC50 was determined as 4660 nM in test [1] and 364 nM in the test on HCT116 cells.

For `Cc1nc(-c2ccccc2)c(C(=O)N2CCN(c3cccc(C#N)c3)CC2)[nH]1` [Example 60, 3-[4-(2-Methyl-5-phenyl-1H-imidazol-4-ylcarbonyl)piperazin-1-yl]benzonitrile], the results for the IC50 (in test [1]; in the test on HCT116 cells) were 990 nM and 11 nM, respectively.

Consider `N#Cc1cccc(N2CCN(C(=O)c3c[nH]cc3-c3ccccc3)CC2)c1` [Example 61, 3-[4-(4-Phenyl-1H-pyrrol-3-ylcarbonyl)piperazin-1-yl]benzonitrile], for which the IC50 is 2320 nM in test [1] and 40 nM in the test on HCT116 cells.

For the compound `COc1cc(OC)cc(N2CCN(C(=O)c3[nH]c(C(F)(F)F)nc3-c3ccccc3)CC2)c1` [Example 62, [4-(3,5-Dimethoxyphenyl)piperazin-1-yl](2-trifluoromethyl-4-phenyl-1H-imidazol-5-yl)methanone], the IC50 was 570 nM in test [1] and 8 nM in the test on HCT116 cells.

Consider `NC(=O)c1cccc(N2CCN(C(=O)c3cn(CCO)cc3-c3ccccc3)CC2)c1` [Example 66, 3-[4-(1-Hydroxyethyl-4-phenyl-1H-pyrrol-3-ylcarbonyl)piperazin-1-yl]benzamide], for which the IC50 in test [1] was 2430 nM; in the test on HCT116 cells, 2030 nM.

As to `COc1cc(OC)cc(N2CCN(C(=O)c3[nH]c(S(C)(=O)=O)nc3-c3ccccc3)CC2)c1` [Example 67, [4-(3,5-Dimethoxyphenyl)piperazin-1-yl](2-methylsulfonyl-4-phenyl-1H-imidazol-5-yl)methanone], the IC50 is 1650 nM in test [1] and 2700 nM in the test with HCT116 cells.

Regarding `O=C(c1[nH]cnc1-c1ccccc1)N1CCN(c2cccc(CO)c2)CC1` [Example 68, [4-(3-Hydroxymethylphenyl)piperazin-1-yl](4-phenyl-1H-imidazol-5-yl)methanone], the results for the IC50 (in test [1]; with HCT116 cells) were 480 nM and 13 nM, respectively.

Take `Cn1cc(C(=O)N2CCN(c3cccc(CO)c3)CC2)c(-c2ccccc2)c1` [Example 69]: the IC50 came out at 710 nM in test [1] and 45 nM with HCT116 cells.

`N#Cc1cccc(N2CCN(C(=O)c3cn(CO)cc3-c3ccccc3)CC2)c1` [Example 72, 3-[4-(1-Hydroxymethyl-4-phenyl-1H-pyrrol-3-ylcarbonyl)piperazin-1-yl]benzonitrile]: the IC50 was 580 nM in test [1] and 29.5 nM in the test on HCT116 cells.

With `NC(=O)c1cccc(N2CCN(C(=O)c3c(-c4ccccc4)ccn3CC(=O)O)CC2)c1` [Example 73, {2-[4-(3-Carbamoylphenyl)piperazin-1-ylcarbonyl]-3-phenylpyrrol-1-yl}acetic acid], the values for the IC50 (in test [1]; with HCT116 cells) were 18400 nM and 2700 nM, respectively.
